The text below walks through data of ChEMBL document CHEMBL2021815, “Metabolism of 4-Aminopiperidine Drugs by Cytochrome P450s: Molecular and Quantum Mechanical Insights into Drug Design” (ACS Med Chem Lett, 2011).

As usually defined, the half-life is the time needed for the level to fall by half in the phase considered.

What all share (format): ADME, Microsome
The target of one data set is CYP2C19 (Homo sapiens, UniProt P33261). In words: Half life in human liver microsomes assessed as CYP2C19-mediated parent compound depletion at 1 uM.
The target in another data set is T1, CYP2B6 (Homo sapiens, UniProt P20813).
T1 sequence (P20813 whole entry): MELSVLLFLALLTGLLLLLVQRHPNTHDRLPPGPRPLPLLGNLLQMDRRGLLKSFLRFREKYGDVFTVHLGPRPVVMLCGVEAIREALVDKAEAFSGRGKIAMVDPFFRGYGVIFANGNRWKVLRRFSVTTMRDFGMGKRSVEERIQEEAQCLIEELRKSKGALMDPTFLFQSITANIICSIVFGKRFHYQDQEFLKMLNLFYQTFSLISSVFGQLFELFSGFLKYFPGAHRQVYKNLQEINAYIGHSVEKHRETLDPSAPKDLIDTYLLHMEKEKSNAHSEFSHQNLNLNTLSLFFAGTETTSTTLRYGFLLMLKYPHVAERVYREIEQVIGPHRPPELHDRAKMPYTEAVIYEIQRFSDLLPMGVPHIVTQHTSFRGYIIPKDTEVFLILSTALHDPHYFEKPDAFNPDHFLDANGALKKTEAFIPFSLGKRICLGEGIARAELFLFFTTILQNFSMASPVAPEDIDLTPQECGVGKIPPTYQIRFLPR
Kind of data set: Half life in human liver microsomes assessed as CYP2B6-mediated parent compound depletion at 1 uM. A general note: Liver microsomes are a subcellular fraction often used to study metabolism.

The target in a further data set is CYP2D6 (Homo sapiens, UniProt P10635). In words: Half life in human liver microsomes assessed as CYP2D6-mediated parent compound depletion at 1 uM.
Another data set has as its target T2, CYP1A2 (Homo sapiens, UniProt P05177).
T2 sequence (P05177 whole entry): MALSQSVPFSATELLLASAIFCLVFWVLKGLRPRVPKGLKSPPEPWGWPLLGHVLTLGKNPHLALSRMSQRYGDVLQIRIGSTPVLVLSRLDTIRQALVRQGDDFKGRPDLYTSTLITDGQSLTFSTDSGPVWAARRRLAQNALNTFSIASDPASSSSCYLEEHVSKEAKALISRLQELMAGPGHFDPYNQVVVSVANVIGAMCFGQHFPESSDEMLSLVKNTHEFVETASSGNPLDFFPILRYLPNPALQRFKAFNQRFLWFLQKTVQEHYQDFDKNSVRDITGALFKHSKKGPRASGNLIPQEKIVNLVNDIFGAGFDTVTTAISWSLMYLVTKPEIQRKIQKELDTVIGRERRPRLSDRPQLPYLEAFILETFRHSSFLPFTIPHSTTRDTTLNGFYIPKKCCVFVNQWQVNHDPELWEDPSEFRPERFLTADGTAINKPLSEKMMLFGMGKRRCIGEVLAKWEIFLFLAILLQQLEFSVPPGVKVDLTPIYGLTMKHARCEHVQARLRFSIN
In words: Half life in human liver microsomes assessed as CYP1A2-mediated parent compound depletion at 1 uM.

For another data set, the target named is CYP3A4 (Homo sapiens, UniProt P08684). In words: Half life in human liver microsomes assessed as CYP3A4-mediated parent compound depletion at 1 uM.
The target of a further data set is T3, CYP2C8 (Homo sapiens, UniProt P10632).
T3 sequence (P10632 whole entry): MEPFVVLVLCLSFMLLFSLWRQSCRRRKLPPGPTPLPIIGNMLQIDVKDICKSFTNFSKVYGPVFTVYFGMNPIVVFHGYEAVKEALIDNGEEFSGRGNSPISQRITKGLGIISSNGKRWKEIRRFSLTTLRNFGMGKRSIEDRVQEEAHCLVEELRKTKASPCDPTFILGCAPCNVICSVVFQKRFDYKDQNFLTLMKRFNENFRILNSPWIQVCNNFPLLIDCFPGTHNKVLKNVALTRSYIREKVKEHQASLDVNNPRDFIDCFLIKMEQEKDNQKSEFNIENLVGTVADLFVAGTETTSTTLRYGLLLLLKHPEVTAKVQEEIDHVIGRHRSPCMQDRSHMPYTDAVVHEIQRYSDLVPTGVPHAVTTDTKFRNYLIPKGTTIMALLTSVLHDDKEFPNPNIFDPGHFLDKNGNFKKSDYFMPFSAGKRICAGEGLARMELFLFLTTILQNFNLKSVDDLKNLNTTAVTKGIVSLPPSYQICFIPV
Kind of data set: Half life in human liver microsomes assessed as CYP2C8-mediated parent compound depletion at 1 uM.

Another data set deals with CYP2C9 (Homo sapiens, UniProt P11712). Kind of data set: Half life in human liver microsomes assessed as CYP2C9-mediated parent compound depletion at 1 uM.
For the next data set, the system named is Liver microsomes. In words: Clearance in human liver microsomes at 1 uM.

Each structure is given as a SMILES string.

Sequence of CYP2C9 (P11712 whole entry): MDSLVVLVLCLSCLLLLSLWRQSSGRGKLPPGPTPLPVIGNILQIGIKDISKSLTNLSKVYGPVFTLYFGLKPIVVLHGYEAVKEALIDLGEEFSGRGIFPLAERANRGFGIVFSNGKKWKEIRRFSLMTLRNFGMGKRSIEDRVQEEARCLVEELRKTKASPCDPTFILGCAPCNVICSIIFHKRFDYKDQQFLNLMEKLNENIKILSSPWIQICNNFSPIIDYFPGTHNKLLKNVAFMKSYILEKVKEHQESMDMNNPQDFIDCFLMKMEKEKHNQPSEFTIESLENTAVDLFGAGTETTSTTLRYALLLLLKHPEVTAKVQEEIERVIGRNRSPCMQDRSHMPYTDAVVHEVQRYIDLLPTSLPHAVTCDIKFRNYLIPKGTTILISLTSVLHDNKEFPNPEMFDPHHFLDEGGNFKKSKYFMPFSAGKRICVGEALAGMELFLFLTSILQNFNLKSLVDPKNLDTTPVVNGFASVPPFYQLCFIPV
Sequence of CYP2D6 (P10635 whole entry): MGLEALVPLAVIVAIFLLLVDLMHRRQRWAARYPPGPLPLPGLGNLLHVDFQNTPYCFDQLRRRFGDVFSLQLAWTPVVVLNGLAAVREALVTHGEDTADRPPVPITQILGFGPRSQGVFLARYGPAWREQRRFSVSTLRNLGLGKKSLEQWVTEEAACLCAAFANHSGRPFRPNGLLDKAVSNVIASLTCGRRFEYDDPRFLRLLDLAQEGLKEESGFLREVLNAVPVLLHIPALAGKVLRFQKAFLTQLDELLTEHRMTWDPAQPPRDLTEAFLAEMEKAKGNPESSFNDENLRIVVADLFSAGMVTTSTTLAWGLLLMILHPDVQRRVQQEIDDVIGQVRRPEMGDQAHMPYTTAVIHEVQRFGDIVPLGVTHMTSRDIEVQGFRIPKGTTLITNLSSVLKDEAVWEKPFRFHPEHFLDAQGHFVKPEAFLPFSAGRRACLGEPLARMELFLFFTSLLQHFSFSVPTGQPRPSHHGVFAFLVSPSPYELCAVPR
Sequence of CYP3A4 (P08684 whole entry): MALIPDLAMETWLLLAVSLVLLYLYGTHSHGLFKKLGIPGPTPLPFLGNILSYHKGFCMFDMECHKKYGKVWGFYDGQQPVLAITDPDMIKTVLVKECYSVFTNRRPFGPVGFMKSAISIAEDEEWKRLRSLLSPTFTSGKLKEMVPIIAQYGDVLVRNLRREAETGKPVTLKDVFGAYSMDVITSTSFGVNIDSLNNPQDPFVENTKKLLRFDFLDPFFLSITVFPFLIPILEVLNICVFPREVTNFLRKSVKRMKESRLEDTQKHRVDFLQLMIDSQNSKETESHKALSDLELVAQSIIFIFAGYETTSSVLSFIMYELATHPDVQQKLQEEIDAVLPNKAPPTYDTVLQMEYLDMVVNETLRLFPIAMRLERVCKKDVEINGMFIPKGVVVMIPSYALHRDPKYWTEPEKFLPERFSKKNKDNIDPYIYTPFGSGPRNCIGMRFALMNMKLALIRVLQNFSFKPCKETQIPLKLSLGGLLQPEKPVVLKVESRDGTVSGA
Sequence of CYP2C19 (P33261 whole entry): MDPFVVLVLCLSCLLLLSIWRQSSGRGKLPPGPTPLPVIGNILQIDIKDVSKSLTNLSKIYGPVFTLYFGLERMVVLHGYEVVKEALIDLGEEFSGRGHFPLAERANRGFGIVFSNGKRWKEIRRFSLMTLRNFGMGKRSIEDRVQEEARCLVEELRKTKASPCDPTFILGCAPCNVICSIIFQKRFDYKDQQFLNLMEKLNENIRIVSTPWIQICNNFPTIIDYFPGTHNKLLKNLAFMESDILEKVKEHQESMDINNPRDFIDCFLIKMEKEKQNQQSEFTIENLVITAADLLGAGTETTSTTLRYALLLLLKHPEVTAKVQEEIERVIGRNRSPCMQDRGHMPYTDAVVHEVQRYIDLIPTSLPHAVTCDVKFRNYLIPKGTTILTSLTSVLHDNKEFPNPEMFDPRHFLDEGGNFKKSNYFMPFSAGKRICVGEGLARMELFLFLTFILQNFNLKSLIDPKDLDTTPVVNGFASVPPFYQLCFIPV

Turning to `O=c1[nH]c2ccccc2n1C1CCN(CCCC(c2ccc(F)cc2)c2ccc(F)cc2)CC1` [PIMOZIDE], the half-life at 1 µM was > 1 h on CYP2C19; > 1 h on CYP2B6; 0.0533 h on CYP2D6; > 1 h on CYP1A2; 0.045 h on CYP3A4; > 1 h on CYP2C8. For the same compound, the half-life at 1 µM at CYP2C9 was > 1 h. Further, the CLH in the data set with Liver microsomes stood at 57 µL/min/mg.
For `COc1cc(N)c(Cl)cc1C(=O)NC1CCN(Cc2ccccc2)CC1` [CLEBOPRIDE], the half-life at 1 µM was > 1 h at CYP2C19; > 1 h at CYP2B6; > 1 h on CYP2D6; > 1 h at CYP1A2; < 0.0833 h on CYP3A4; > 1 h on CYP2C8. The half-life at 1 µM at CYP2C9 was > 1 h. Besides, the “Intrinsic clearance in liver microsomes” value in the data set on Liver microsomes was found to be 50.4 µL/min/mg.
As for `COc1cc(N)c(Cl)cc1C(=O)NC1CCN(CCCOc2ccc(F)cc2)CC1OC` (stereo unspecified) [CISAPRIDE], the half-life at 1 µM at CYP2C19, at CYP2B6, at CYP2D6, at CYP1A2, on CYP2C8 and at CYP2C9 was > 1 h throughout. Besides, in the data set with Liver microsomes, the “Intrinsic clearance in liver microsomes” value was found to be 120.7 µL/min/mg.
`COc1ccc(CCN2CCC(Nc3nc4ccccc4n3Cc3ccc(F)cc3)CC2)cc1` [ASTEMIZOLE]: the half-life at 1 µM at CYP2C19 is > 1 h; on CYP2B6, > 1 h; on CYP2D6 it was 0.0667 h; at CYP1A2 it was > 1 h; at CYP3A4, 0.025 h; on CYP2C8, > 1 h. At CYP2C9, the half-life at 1 µM was > 1 h. Moreover, the “Intrinsic clearance in liver microsomes” value with Liver microsomes was determined as 136 µL/min/mg.
Consider `CN(c1nc2ccccc2s1)C1CCN(CC(O)COc2ccc(F)cc2)CC1` (stereo unspecified) [SABELUZOLE], for which the half-life at 1 µM was > 1 h on CYP2C19; > 1 h at CYP2B6; 0.025 h at CYP2D6; > 1 h on CYP1A2; < 0.0833 h at CYP3A4; > 1 h at CYP2C8. Further, the half-life at 1 µM on CYP2C9 is > 1 h. Moreover, in the data set with Liver microsomes, the “Intrinsic clearance in liver microsomes” value is 37 µL/min/mg.
As to `O=C(NC1CCN(CCc2c[nH]c3ccccc23)CC1)c1ccccc1` [INDORAMIN], the half-life at 1 µM was > 1 h on CYP2C19; > 1 h at CYP2B6; < 0.0833 h on CYP2D6; > 1 h at CYP1A2; 0.267 h at CYP3A4; > 1 h at CYP2C8. In addition, the half-life at 1 µM on CYP2C9 was > 1 h. In addition, the “Intrinsic clearance in liver microsomes” value with Liver microsomes turned out to be 46.4 µL/min/mg.
For `O=c1[nH]c2ccccc2n1CCCN1CCC(n2c(=O)[nH]c3cc(Cl)ccc32)CC1` [DOMPERIDONE], the CLH with Liver microsomes is 108.6 µL/min/mg.
In the case of `O=C(CCCN1CCC(n2c(O)nc3ccccc32)CC1)c1ccc(F)cc1` [BENPERIDOL], the half-life at 1 µM was > 1 h at CYP2C19; > 1 h at CYP2B6; 0.173 h on CYP2D6; > 1 h at CYP1A2; 0.055 h at CYP3A4; 0.73 h at CYP2C8. Besides, the half-life at 1 µM on CYP2C9 is > 1 h. In the data set on Liver microsomes, this compound registered a CLH of 42 µL/min/mg.
